system: TDP-43 aggregation in PC12 cells stably expressing GFP-tagged mutant TDP-43 (TDP-43^Q33IK::eGFP); assay: In vitro efficacy assay: inhibition of TDP-43 inclusions, concentration-response, fluorescence microscopy; format: cell-based; conditions: PC12 cells, 1 hour pre-treatment, 15 μM sodium arsenite for 23 hours, 10-point dose response curve
Protocol: Exemplary compounds of the invention were evaluated for efficacy in inhibiting TDP-43 inclusions using a concentration-response assay. Briefly, PC12 cells stably expressing a GFP-tagged mutant form of TDP-43 (TDP-43^Q33IK::eGFP) were pre-treated for 1 hour with exemplary compounds and stressed with 15 μM sodium arsenite for 23 hours to induce TDP-43 aggregation. The inhibitory effect on TDP-43 aggregation was measured using fluorescence microscopy. The ratio of cells with TDP-43 aggregates was calculated based on the total number of cells with detectable GFP expression. In the table, “A” indicates an IC50 of less than 100 nM, “B” indicates an IC50 range from 100 nM to 500 nM; “C” indicates an IC50 range from 500 nM to 2 μM; and “D” indicates an IC50 greater than 2 μM.

Row | IC50 [µM] | SMILES
1 | < 0.1 | CCN(C(=O)c1cc2ccccc2[nH]1)[C@H]1CCC[C@@H](NCc2cccc(F)c2)C1 [Compound 106, N-ethyl-N-((1S,3R)-3-((3-fluorobenzyl)amino)cyclohexyl)-1H-indole-2-carboxamide]

same assay, conditions: Rattus norvegicus, PC-12, PC12 cells, 1 hour pre-treatment, 15 μM sodium arsenite for 23 hours, 10-point dose response curve

Row | IC50 [µM] | SMILES
2 | < 0.1 | CCN(C(=O)c1nc2c(OC)cccc2[nH]1)[C@H]1CCC[C@@H](NCc2ccccc2)C1 [Compound 484]
3 | > 2 | CCN(C(=O)c1cc2ccccc2[nH]1)[C@H]1CCC[C@@H](Nc2nnc(C3CC3)s2)C1 [Compound 499, N-((1S,3R)-3-((5-cyclopropyl-1,3,4-thiadiazol-2-yl)amino)cyclohexyl)-N-ethyl-1H-indole-2-carboxamide]
4 | < 0.1 | C#CCOc1cccc(CN[C@@H]2CCC[C@H](N(CC)C(=O)c3nc4cc([N+](=O)[O-])ccc4[nH]3)C2)c1 [Compound 563]
5 | < 0.1 | CCN(C(=O)c1nc2ccccc2[nH]1)[C@H]1CCC[C@@H](NCc2cccc(OC(F)(F)F)c2)C1 [Compound 472]
6 | < 0.1 | CCN(C(=O)c1nc2cc(C#N)ccc2[nH]1)[C@H]1CCC[C@@H](NCc2ccc3ocnc3c2)C1 [Compound 529]
7 | > 2 | CCN(C(=O)c1cc2ccccc2[nH]1)[C@@H]1COC[C@H](N[C@@H]2CCc3ccccc32)C1 [Compound 505, N-((3S,5R)-5-(((R)-2,3-dihydro-1H-inden-1-yl)amino)tetrahydro-2H-pyran-3-yl)-N-ethyl-1H-indole-2-carboxamide]
8 | < 0.1 | CCN(C(=O)c1nc2cc(OC(F)(F)F)ccc2[nH]1)[C@H]1CCC[C@@H](NCc2ccccc2)C1 [Compound 539, N-((1S,3R)-3-(benzylamino)cyclohexyl)-N-ethyl-5-(trifluoromethoxy)-1H-benzo[d]imidazole-2-carboxamide]
9 | < 0.1 | C#CCOc1ccc(CN[C@@H]2CCC[C@H](N(CC)C(=O)c3nc4c([N+](=O)[O-])cccc4[nH]3)C2)cc1 [Compound 565]
10 | < 0.1 | CCN(C(=O)c1nc2cc(F)ccc2[nH]1)[C@H]1CCC[C@@H](NCc2cccc(F)c2)C1 [Compound 525]
11 | < 0.1 | CCN(C(=O)c1cc2ccccc2[nH]1)[C@H]1CCC[C@@H](NCc2cc(C(C)C)no2)C1 [Compound 471]
12 | < 0.1 | C#CCOc1cccc(CN[C@@H]2CCC[C@H](N(CC)C(=O)c3nc4c(N)cccc4[nH]3)C2)c1 [Compound 568]
13 | 0.5 to 2 | CCN(C(=O)c1cc2c([nH]1)CC(C)(C)OC2)[C@H]1CCC[C@@H](NCc2ccccc2)C1 [Compound 502, N-((1S,3R)-3-(benzylamino)cyclohexyl)-N-ethyl-6,6-dimethyl-1,4,6,7-tetrahydropyrano[4,3-b]pyrrole-2-carboxamide]
14 | < 0.1 | CCN(C(=O)c1nc2ccccc2[nH]1)[C@H]1CCC[C@@H](NCc2cc(C(F)(F)F)on2)C1 [Compound 554, N-ethyl-N-((1S,3R)-3-(((5-(trifluoromethyl)isoxazol-3-yl)methyl)amino)cyclohexyl)-1H-benzo[d]imidazole-2-carboxamide]
15 | > 2 | CCN(C(=O)c1cc2ccccc2[nH]1)C1COC[C@@H](N[C@H]2CCc3ccccc32)C1 (stereo partly shown) [Compound 508]
16 | < 0.1 | CCN(C(=O)c1cc2ccccc2[nH]1)[C@H]1CCC[C@@H](NCc2nnc(C3CC3)s2)C1 [Compound 467, N-((1S,3R)-3-(((5-cyclopropyl-1,3,4-thiadiazol-2-yl)methyl)amino)cyclohexyl)-N-ethyl-1H-indole-2-carboxamide]
17 | < 0.1 | CCN(C(=O)c1cc2cc(C#N)ccc2[nH]1)[C@H]1CCC[C@@H](NCc2ccccc2)C1 [Compound 538, N-((1S,3R)-3-(benzylamino)cyclohexyl)-5-cyano-N-ethyl-1H-indole-2-carboxamide]
18 | < 0.1 | CCN(C(=O)c1nc2ccccc2[nH]1)[C@H]1CCC[C@@H](NCc2oc3ccccc3c2C)C1 [Compound 476]
19 | 0.1 to 0.5 | CCN(C(=O)c1cc2c([nH]1)CCCS2(=O)=O)[C@H]1CCC[C@@H](NCc2ccccc2)C1 [Compound 512, N-((1S,3R)-3-(benzylamino)cyclohexyl)-N-ethyl-1,5,6,7-tetrahydrothiopyrano[3,2-b]pyrrole-2-carboxamide 4,4-dioxide]
20 | > 2 | CCN(C(=O)c1cc2ccccc2[nH]1)[C@@H]1COC[C@@H](N[C@@H]2CCc3ccccc32)C1 [Compound 507, N-((3S,5S)-5-(((R)-2,3-dihydro-1H-inden-1-yl)amino)tetrahydro-2H-pyran-3-yl)-N-ethyl-1H-indole-2-carboxamide]
21 | > 2 | CCN(C(=O)c1nc2cc(F)ccc2[nH]1)[C@@]1(C)CCC[C@@H](NCc2ccccc2)C1 [Compound 556, N-((1S,3R)-3-(benzylamino)-1-methylcyclohexyl)-N-ethyl-5-fluoro-1H-benzo[d]imidazole-2-carboxamide]
22 | < 0.1 | C#CCOc1cccc(CN[C@@H]2CCC[C@H](N(CC)C(=O)c3nc4c([N+](=O)[O-])cccc4[nH]3)C2)c1 [Compound 566]
23 | < 0.1 | CCN(C(=O)c1nc2ccccc2[nH]1)[C@H]1CCC[C@@H](NCc2cc3ncccc3o2)C1 [Compound 491]
24 | < 0.1 | CCN(C(=O)c1nc2cc(C3CC3)ccc2[nH]1)[C@H]1CCC[C@@H](NCc2ccccc2)C1 [Compound 541]
25 | < 0.1 | CCN(C(=O)c1nc2ccccc2[nH]1)[C@H]1CCC[C@@H](NCc2cc3ccccn3c2)C1 [Compound 493]
26 | 0.5 to 2 | CCN(C(=O)c1cc2ccccc2[nH]1)[C@H]1COC[C@H](N[C@@H]2CCc3ccccc32)C1 [Compound 506, N-((3R,5R)-5-(((R)-2,3-dihydro-1H-inden-1-yl)amino)tetrahydro-2H-pyran-3-yl)-N-ethyl-1H-indole-2-carboxamide]
27 | < 0.1 | CCN(C(=O)c1nc2cc(C#N)ccc2[nH]1)[C@H]1CCC[C@@H](NCc2ccc(F)cc2)C1 [Compound 519]

More lines, now with the values behind:

Row | SMILES | IC50 [µM]
28 | CCN(C(=O)c1cc2ccccc2[nH]1)[C@H]1CCC[C@@H](N2CCc3ccccc3C2)C1 [Compound 115] | 0.5 to 2
29 | CCN(C(=O)c1cc2ncccc2[nH]1)[C@H]1CCC[C@@H](NC(C)(C)c2ccc(OC)cc2)C1 [Compound 408] | < 0.1
30 | CCN(C(=O)c1ccccc1)[C@H]1CCC[C@@H](NCc2ccccc2)C1 [Compound 405] | > 2
31 | CCN(C(=O)c1cc2ncccc2[nH]1)[C@H]1CCC[C@H](NC(C)(C)c2ccccc2)C1 [Compound 411] | < 0.1
32 | CCN(C(=O)c1nc2ccccc2[nH]1)[C@H]1CCC[C@@H](NCc2ccccc2)C1 [Compound 400, N-((1S,3R)-3-(benzylamino)cyclohexyl)-N-ethyl-1H-benzo[d]imidazole-2-carboxamide] | < 0.1
33 | CCN(C(=O)c1cc2ccccc2[nH]1)[C@H]1CCC[C@@H](NCc2ccc(OC(F)(F)F)cc2)C1 [Compound 429] | < 0.1
34 | CCN(C(=O)c1cc2ccccc2[nH]1)[C@H]1CCC[C@@H](NCc2nnc(C)s2)C1 [Compound 454] | < 0.1
35 | CCN(C(=O)c1cc2ccccc2[nH]1)[C@H]1CCC[C@@H](NCc2c[nH]cn2)C1 [Compound 466] | > 2
36 | O=C(c1cc2ccccc2[nH]1)N(CC(F)(F)F)[C@H]1CCC[C@@H](NCc2ccc(F)cc2)C1 [Compound 171] | < 0.1
37 | CCN(C(=O)c1cc2ccccc2[nH]1)[C@H]1CCC[C@@H](NCc2cncnc2)C1 [Compound 130] | 0.5 to 2
38 | CCN(C(=O)c1[nH]c2ccccc2c1C)[C@H]1CCC[C@@H](NCc2ccccc2)C1 [Compound 402] | < 0.1
39 | C#CCOc1ccc(C(=O)c2ccc(CN[C@@H]3CCC[C@H](N(CC)C(=O)c4cc5ncccc5[nH]4)C3)cc2)cc1 [Compound 463, N-ethyl-N-((1S,3R)-3-((4-(4-(prop-2-yn-1-yloxy)benzoyl)benzyl)amino)cyclohexyl)-1H-pyrrolo[3,2-b]pyridine-2-carboxamide] | < 0.1
40 | CCN(C(=O)c1cc2ncccc2[nH]1)[C@H]1CCC[C@@H](NCc2cc3ccccc3o2)C1 [Compound 444] | < 0.1
41 | CCN(C(=O)c1cc2ccccc2[nH]1)[C@H]1CCC[C@@H](N[C@H]2CCc3cc(F)ccc32)C1 [Compound 124] | < 0.1
42 | CCN(C(=O)c1cc2ccncc2[nH]1)[C@H]1CCC[C@@H](NCc2ccccc2)C1 [Compound 403] | 0.1 to 0.5
43 | CCN(C(=O)c1cc2ccccc2[nH]1)[C@H]1CCC[C@@H](NCc2conc2C2CC2)C1 [Compound 456] | < 0.1
44 | CCN(C(=O)c1cc2ccccc2[nH]1)[C@H]1CCC[C@@H](NCc2cc3ccccc3s2)C1 [Compound 450] | < 0.1
45 | O=C(c1cc2ccccc2[nH]1)N(CC(F)(F)F)[C@H]1CCC[C@@H](NCc2ccccc2)C1 [Compound 179] | < 0.1
46 | CCN(C(=O)c1cc2ccccc2[nH]1)[C@@H]1CCC[C@H](NCc2ccccc2)C1 [Compound 103] | 0.5 to 2
47 | CCN(C(=O)c1cc2ccccc2[nH]1)[C@H]1CCC[C@@H](NCc2cc(C3CC3)no2)C1 [Compound 455] | < 0.1
48 | CCN(C(=O)c1cc2ccccc2[nH]1)[C@@H]1CCC[C@@H](NCc2ccccc2)C1 [Compound 104] | 0.5 to 2
49 | CCN(C(=O)c1cc2ncccc2[nH]1)[C@H]1CCC[C@@H](NCc2cc(C3CC3)on2)C1 [Compound 436] | < 0.1
50 | CCN(C(=O)c1cc2ccccc2[nH]1)[C@H]1CCC[C@@H](NCc2cc(C)no2)C1 [Compound 458] | 0.1 to 0.5
51 | CCN(C(=O)c1cc2ccccc2[nH]1)[C@H]1CCC[C@@H](NCc2cc(C3CC3)on2)C1 [Compound 460] | < 0.1
52 | CCN(C(=O)c1cc2ccccc2[nH]1)[C@H]1CCC[C@@H](N[C@@H]2CCc3ccccc32)C1 [Compound 121] | > 2
